Assay results taken from patent publication US6492419B1, “Aqueous insecticidal pour-on formulation” (Schering-Plough Animal Health Corp., priority 1997, dated 2002).

Assays:
Type in all cases: in vivo
[1] = Tissue residues after aqueous pour-on, cattle; settings: 15 mg/kg pour-on, LOQ = 0.02 mg/kg
Procedure: (§1) Tissue residue studies were carried out following application of the aqueous pour-on to both sheep and cattle (Reference is made to page 1, lines 34 and 35 where it is mentioned that treatment with non aqueous pour-on formulations can lead to high tissue residues in animals treated with these formulations.)

[2] = Tissue residues after aqueous pour-on, sheep; settings: 20 mg/kg pour-on, LOQ = 0.02 mg/kg
Procedure: as §1

[3] = tested on: Bovicola ovis (Schrank), sheep body louse; experiment: Pen trial of diflubenzuron pour-on against sheep lice (Examples 2-4); settings: for % Lice reduction: corrected lice counts
From the text: Order—Phthiraptera, Sub Order—Mallophaga, Family—Trichodectidae, Genus—Damalinia (Bovicola, Trichodectes), Species—Bovicola ovis (Schrank) and Common name—Sheep body louse.
The sheep used in this study were a uniform line of Merino wethers heavily infected with lice.
The method requires examination of twenty partings each 10 cm long, along two contours on the left and right sides covering the wool growing regions of the animal. At each of the 40 recorded sites all live adult lice are counted. Site counts are summed to give a total count for the animal.
Within 24 hours of shearing, treatments were applied as a single stripe along the backline of the sheep. The dose rate applied was based on 20 mL of treatment per animal which is based on all test animals being in the 30.1-55 kg weight range.
The delivery apparatus for each formulation was a commercial applicator, set to deliver 1×20 mL doses to the sheep backline. The gun was calibrated using a volumetric cylinder and checked twice before and once after treatment.
To avoid the possibility of rain complicating the post treatment situation the sheep were kept in pens for a minimum of 48 hours. Then on the morning of the 25 th day of the trial, they were placed into their paddocks. […]

sheep lice = experiment: Field efficacy (control of sheep lice); settings: 25 g/L; for Pre treatment mean lice count: baseline

O=C(NC(=O)c1c(F)cccc1F)Nc1ccc(Cl)cc1 [Diflubenzuron, diflubenzuron]
Level of diflubenzuron residues in fat tissues, Inguinal fat ([1]; 1 day post treatment): <LOQ | Level of diflubenzuron residues in fat tissues, Inguinal fat ([1]; 3 days post treatment): <LOQ | Level of diflubenzuron residues in fat tissues, Inguinal fat ([1]; 7 days post treatment): <LOQ | Level of diflubenzuron residues in fat tissues, Peri-renal fat ([1]; 7 days post treatment): <LOQ | Level of diflubenzuron residues in fat tissues, Inguinal fat ([1]; 14 days post treatment): <LOQ | Level of diflubenzuron residues in fat tissues, Peri-renal fat ([1]; 14 days post treatment): <LOQ | concentration at 1 day ([1]; bovine, peri-renal fat, topical, 1 day post treatment, read-out: Level of diflubenzuron residues in fat tissues, Peri-renal fat): 170 ng/g | concentration at 3 days ([1]; bovine, peri-renal fat, topical, 3 days post treatment, read-out: Level of diflubenzuron residues in fat tissues, Peri-renal fat): 90 ng/g | Level of diflubenzuron residues in tissues, Kidney ([2]; 1 day post treatment): <LOQ | Level of diflubenzuron residues in tissues, Liver ([2]; 1 day post treatment): <LOQ | Level of diflubenzuron residues in tissues, Muscle ([2]; 1 day post treatment): <LOQ | Level of diflubenzuron residues in tissues, Inguinal fat ([2]; 1 day post treatment, max): ≤ 0.02 max mg/kg | Level of diflubenzuron residues in tissues, peri-renal fat ([2]; 1 day post treatment, max): ≤ 0.03 max mg/kg | Level of diflubenzuron residues in tissues, Kidney ([2]; 3 days post treatment): <LOQ | Level of diflubenzuron residues in tissues, Liver ([2]; 3 days post treatment): <LOQ | Level of diflubenzuron residues in tissues, Muscle ([2]; 3 days post treatment): <LOQ | Level of diflubenzuron residues in tissues, Inguinal fat ([2]; 3 days post treatment, max): ≤ 0.04 max mg/kg | Level of diflubenzuron residues in tissues, peri-renal fat ([2]; 3 days post treatment, max): ≤ 0.02 max mg/kg | Level of diflubenzuron residues in tissues, Kidney ([2]; 7 days post treatment): <LOQ | Level of diflubenzuron residues in tissues, Liver ([2]; 7 days post treatment): <LOQ | Level of diflubenzuron residues in tissues, Muscle ([2]; 7 days post treatment): <LOQ | Level of diflubenzuron residues in tissues, Inguinal fat ([2]; 7 days post treatment, max): ≤ 0.03 max mg/kg | Level of diflubenzuron residues in tissues, peri-renal fat ([2]; 7 days post treatment, max): ≤ 0.02 max mg/kg | Level of diflubenzuron residues in tissues, Kidney ([2]; 14 days post treatment): <LOQ | Level of diflubenzuron residues in tissues, Liver ([2]; 14 days post treatment): <LOQ | Level of diflubenzuron residues in tissues, Muscle ([2]; 14 days post treatment): <LOQ | Level of diflubenzuron residues in tissues, peri-renal fat ([2]; 14 days post treatment): <LOQ | Level of diflubenzuron residues in tissues, Inguinal fat ([2]; 14 days post treatment, max): ≤ 0.02 max mg/kg | Level of diflubenzuron residues in tissues, Kidney ([2]; 21 days post treatment): <LOQ | Level of diflubenzuron residues in tissues, Liver ([2]; 21 days post treatment): <LOQ | Level of diflubenzuron residues in tissues, Muscle ([2]; 21 days post treatment): <LOQ | Level of diflubenzuron residues in tissues, peri-renal fat ([2]; 21 days post treatment): <LOQ | Level of diflubenzuron residues in tissues, Inguinal fat ([2]; 21 days post treatment, max): ≤ 0.05 max mg/kg | Level of diflubenzuron residues in tissues, Inguinal fat ([2]; 42 days post treatment): <LOQ | Level of diflubenzuron residues in tissues, Kidney ([2]; 42 days post treatment): <LOQ | Level of diflubenzuron residues in tissues, Liver ([2]; 42 days post treatment): <LOQ | Level of diflubenzuron residues in tissues, Muscle ([2]; 42 days post treatment): <LOQ | Level of diflubenzuron residues in tissues, peri-renal fat ([2]; 42 days post treatment): <LOQ | lice killed ([3]; 12.5 and 25.0 g/L, 20 ml dose along the backline of sheep, within 10 weeks of application): 95% | lice kills ([3]; 12.5 and 25.0 g/L, 20 ml dose along the backline of sheep, within 20 weeks): 100% | % Lice reduction ([3]; 12.5 g/L pour-on, sheep, after 2 weeks): 91.0% | % Lice reduction ([3]; 12.5 g/L pour-on, sheep, after 5 weeks): 94.9% | % Lice reduction ([3]; 12.5 g/L pour-on, sheep, after 10 weeks): 98.9% | % Lice reduction ([3]; 12.5 g/L pour-on, sheep, after 15 weeks): 100.0% | % Lice reduction ([3]; 12.5 g/L pour-on, sheep, after 20 weeks): 100.0% | Mean Lice Counts ([3]; 12.5 g/L, 20 mL backline (250 mg per sheep), 5 Merino wethers, week 0 (baseline)): 161.8 | Mean Lice Counts ([3]; 12.5 g/L, 20 mL backline, sheep, 2 weeks after treatment): 6.8 | Mean Lice Counts ([3]; 12.5 g/L, 20 mL backline, sheep, 5 weeks after treatment): 1.8 | Mean Lice Counts ([3]; 12.5 g/L, 20 mL backline, sheep, 10 weeks after treatment): 0.4 | Mean Lice Counts ([3]; 12.5 g/L, 20 mL backline, sheep, 15 weeks after treatment): 0.0 | Mean Lice Counts ([3]; 12.5 g/L, 20 mL backline, sheep, 20 weeks after treatment): 0.0 | % Lice reduction ([3]; 25.0 g/L pour-on, sheep, after 2 weeks): 69.6% | % Lice reduction ([3]; 25.0 g/L pour-on, sheep, after 5 weeks): 83.4% | % Lice reduction ([3]; 25.0 g/L pour-on, sheep, after 10 weeks): 94.8% | % Lice reduction ([3]; 25.0 g/L pour-on, sheep, after 15 weeks): 96.4% | % Lice reduction ([3]; 25.0 g/L pour-on, sheep, after 20 weeks): 100.0% | Mean Lice Counts ([3]; 25.0 g/L, 20 mL backline (500 mg per sheep), 5 Merino wethers, week 0 (baseline)): 120.6 | Mean Lice Counts ([3]; 25.0 g/L, 20 mL backline, sheep, 2 weeks after treatment): 17.2 | Mean Lice Counts ([3]; 25.0 g/L, 20 mL backline, sheep, 5 weeks after treatment): 4.4 | Mean Lice Counts ([3]; 25.0 g/L, 20 mL backline, sheep, 10 weeks after treatment): 1.4 | Mean Lice Counts ([3]; 25.0 g/L, 20 mL backline, sheep, 15 weeks after treatment): 1.0 | Mean Lice Counts ([3]; 25.0 g/L, 20 mL backline, sheep, 20 weeks after treatment): 0.0 | % Lice reduction (sheep lice; Trial 1, Uraila, N.S.W., 1309 fine wool merinos, after 6 weeks): 98.1% | % Lice reduction (sheep lice; Trial 1, Uraila, N.S.W., 1309 fine wool merinos, after 12 weeks): 98.7% | % Lice reduction (sheep lice; Trial 1, Uraila, N.S.W., 1309 fine wool merinos, after 20 weeks): 100% | Pre treatment mean lice count (sheep lice; Trial 1, Uraila, N.S.W., 1309 fine wool merinos): 156 | % Lice reduction (sheep lice; Trial 2, Guyra, N.S.W., 2000 super fine wool, after 6 weeks): 100% | % Lice reduction (sheep lice; Trial 2, Guyra, N.S.W., 2000 super fine wool, after 12 weeks): 100% | % Lice reduction (sheep lice; Trial 2, Guyra, N.S.W., 2000 super fine wool, after 20 weeks): 100% | Pre treatment mean lice count (sheep lice; Trial 2, Guyra, N.S.W., 2000 super fine wool): 41 | % Lice reduction (sheep lice; Trial 3, Crookwell, N.S.W., 680 medium fine wool merinos, after 6 weeks): 91.3% | % Lice reduction (sheep lice; Trial 3, Crookwell, N.S.W., 680 medium fine wool merinos, after 12 weeks): 99.6% | % Lice reduction (sheep lice; Trial 3, Crookwell, N.S.W., 680 medium fine wool merinos, after 20 weeks): 100% | Pre treatment mean lice count (sheep lice; Trial 3, Crookwell, N.S.W., 680 medium fine wool merinos): 242 | % Lice reduction (sheep lice; Trial 4, Lucindale, N.S.W, 1094 strong wool merinos, after 6 weeks): 99.8% | % Lice reduction (sheep lice; Trial 4, Lucindale, N.S.W, 1094 strong wool merinos, after 12 weeks): 100% | % Lice reduction (sheep lice; Trial 4, Lucindale, N.S.W, 1094 strong wool merinos, after 20 weeks): 100% | Pre treatment mean lice count (sheep lice; Trial 4, Lucindale, N.S.W, 1094 strong wool merinos): 35 | % Lice reduction (sheep lice; Trial 5, Coonalpyn, S.A., 1101 strong wool merinos, after 6 weeks): 99.6% | % Lice reduction (sheep lice; Trial 5, Coonalpyn, S.A., 1101 strong wool merinos, after 12 weeks): 100% | % Lice reduction (sheep lice; Trial 5, Coonalpyn, S.A., 1101 strong wool merinos, after 20 weeks): 100% | Pre treatment mean lice count (sheep lice; Trial 5, Coonalpyn, S.A., 1101 strong wool merinos): 142 | % Lice reduction (sheep lice; Trial 6, Lismore, Vic, 812 super fine merinos, after 6 weeks): 99.5% | % Lice reduction (sheep lice; Trial 6, Lismore, Vic, 812 super fine merinos, after 12 weeks): 100% | % Lice reduction (sheep lice; Trial 6, Lismore, Vic, 812 super fine merinos, after 20 weeks): 100% | Pre treatment mean lice count (sheep lice; Trial 6, Lismore, Vic, 812 super fine merinos): 51
